Measurements as given in patent US8487091B2, “Substituted cyclopentanes having prostaglandin activity” (Allergan, Inc., priority 2008, dated 2013).
pEC50, pKi: −log10 of the molar value. Where “and” joins values, the source holds several entries; their conditions need not be identical. Equal entries are not always repeated.

Assays:
[1] = molecular target: T1, EP2 (Homo sapiens, UniProt P43116); assay: EP2 cAMP functional assay; format: cell-based
Description: (§1) United States Patent Application Publication No. 20070129552, describes the methods used to obtain the in vitro data in Table 1 below. The part of that reference which describes the method is incorporated by reference herein.

[2] = molecular target: T1, EP2; assay: EP2 binding assay
Description: as §1

T1 sequence (P43116 whole entry): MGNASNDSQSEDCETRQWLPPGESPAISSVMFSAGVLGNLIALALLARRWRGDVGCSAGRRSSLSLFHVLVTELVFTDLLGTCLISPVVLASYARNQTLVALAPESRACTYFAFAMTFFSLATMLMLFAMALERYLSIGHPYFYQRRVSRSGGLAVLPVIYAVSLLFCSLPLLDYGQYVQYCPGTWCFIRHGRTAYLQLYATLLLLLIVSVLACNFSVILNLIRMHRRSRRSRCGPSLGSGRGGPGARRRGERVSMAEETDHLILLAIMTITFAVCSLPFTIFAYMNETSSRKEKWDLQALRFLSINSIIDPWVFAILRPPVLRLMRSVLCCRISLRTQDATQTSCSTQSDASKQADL

Row | pEC50 [1] | pKi [2] | Structure (SMILES)
1 | 7.77 and 8.15 | 7.51 and 7.80 | CCC1(C(O)C/C=C/[C@@H]2[C@@H](CCCc3ccc(C(=O)O)s3)CC[C@H]2Cl)CCC1 (stereo partly shown) [Compound 10]
2 | 8.27 | 7.07 | CCC1(C(O)C/C=C/[C@H]2C(=O)CC[C@@H]2CCCc2ccc(C(=O)O)s2)CCC1 (stereo partly shown) [Compound 12]
3 | 8.20 | 6.86 | CCC1(C(O)CCC[C@H]2C(=O)CC[C@@H]2CCCc2ccc(C(=O)O)s2)CCC1 (stereo partly shown) [Compound 13]
4 | 7.49 | 7.77 | CCC1(C(O)C/C=C/C2=CCC[C@@H]2CCCc2ccc(C(=O)O)s2)CCC1 (stereo partly shown) [Compound 16]
5 | 7.74 | 6.91 | CCC1(C(O)CCCC2C(C#N)CCC2CCCc2ccc(C(=O)O)s2)CCC1 (stereo not shown) [Compound 22]
6 | 8.24 | 7.80 and 7.17 | CCC1(C(O)C/C=C/[C@@H]2[C@@H](CCCc3ccc(C(=O)O)s3)CC[C@H]2F)CCC1 (stereo partly shown) [Compound 25]
7 | 8.07 | 7.82 and 7.33 | CCC1(C(O)CCC[C@@H]2[C@@H](CCCc3ccc(C(=O)O)s3)CC[C@H]2F)CCC1 (stereo partly shown) [Compound 27]
8 | 7.64 | 7.44 | CCC1(C(O)C/C=C/[C@@H]2[C@@H](CCCc3ccc(C(=O)O)s3)CC[C@@H]2F)CCC1 (stereo partly shown) [Compound 35]
9 | 7.72 | 7.60 | CCC1(C(O)CCC[C@@H]2[C@@H](CCCc3ccc(C(=O)O)s3)CC[C@@H]2F)CCC1 (stereo partly shown) [Compound 37]
10 | 6.89 | 5.86 | CCC1(C(O)C/C=C/[C@@H]2[C@@H](CCCc3ccc(C(=O)O)s3)CC[C@@H]2C#N)CCC1 (stereo partly shown) [Compound 41]
11 | 7.27 | 6.29 | CCC1(C(O)CCCC2C(C#N)CCC2CCCc2ccc(C(=O)O)s2)CCC1 (stereo not shown) [Compound 43]
12 | 6.93 | 5.93 | CCC1(C(O)C/C=C/[C@@H]2[C@@H](CCCc3ccc(C(=O)O)s3)CC[C@@H]2Cl)CCC1 (stereo partly shown) [Compound 50]
13 | 6.94 | 6.42 | CCC1(C(O)CCC[C@@H]2[C@@H](CCCc3ccc(C(=O)O)s3)CC[C@@H]2Cl)CCC1 (stereo partly shown) [Compound 51]
14 | 7.96 | 7.40 | CCC1(C(O)CCC[C@@H]2[C@@H](CCCc3ccc(C(=O)O)s3)CC[C@H]2Cl)CCC1 (stereo partly shown) [Compound 67]
